Assay results: patent US6933288B2, “Pyranosyl cytosines: pharmaceutical formulations and methods” (ISIS Pharmaceuticals, Inc., priority 2002, dated 2005)

tested on: C. Albicans; assay: Activity against fungi (C. albicans); assay type: cell-based; conditions: Table 10
Excerpt: Table 10 presents results of activity assays for selected compounds against fungi, as exemplified by activity against c. albicans according to assays known in the art.

SMILES	Activity against C. Albicans
CNCCNC(CCN)C(=O)CC1C(C(=O)N2CCNCC2)OC(n2ccc(N)nc2=O)C(O)C1O (stereo not drawn) [compound 1]	1 to 3 µM
CNCC(=O)NC(CCN)C(=O)CC1C(C(=O)N2CCNCC2)OC(n2ccc(NCCCN3CCN(C)CC3)nc2=O)C(O)C1O (stereo not drawn) [compound 2]	3 to 6 µM
CNCC(=O)NC(CCN)C(=O)NC1C(C(=O)N2CCNCC2)OC(n2ccc(N)nc2=O)C(O)C1O (stereo not drawn) [compound 5]	1 to 3 µM
